Patent US8445509B2, “Fused heterocyclic derivatives and use thereof” (Takeda Pharmaceutical Company Limited, priority 2008, dated 2013)

What was measured:
MKN-45 cells = assay: Antitumor test, MKN-45 transplanted nude mouse; format: in vivo, nude mouse (BALB/c nu/nu); conditions: MKN-45, dose 2 mg/kg, orally, 14 consecutive days
Protocol: (§1) Cancer cells were cultured in a culture medium containing 10% bovine fetal serum in an incubator at 37° C., 5% CO2. MKN-45 cells were treated with trypsin/EDTA and isolated. MKN-45 and MV-4-11 cells were washed with HBSS (HANK's Balanced Saline Solution). When MKN-45 cells were transplanted, they were adjusted with HBSS to a cell density of 1.2×10^8 cells/mL, and transplanted by subcutaneous injection of 0.05 mL of a mixed suspension (3×10^6 cells) of the cell suspension and the same amount of Matrigel into the abdomen of 6 or 7-week-old female nude mouse (BALB/c nu/nu, CLEA Japan, Inc.). When MV-4-11 cells were transplanted, they were adjusted with HESS to a cell density of 1.2×10^8 cells/mL, and transplanted by subcutaneous injection of 0.05 mL of a mixed suspension (3×10^6 cells) of the cell suspension and the same amount of Matrigel into the abdomen of 7-week-old female nude mouse (BALB/c nu/nu, CLEA Japan, Inc.). When the average tumor volume reached 100-250 mm^3, the mice were grouped, and various doses of test substance were orally administered for 14 consecutive days starting from the next day. The length of the major axis and the length of the minor axis of the tumor were measured over time and the tumor volume was calculated by tumor volume=major axis length×minor axis length×minor axis length×0.5. The ratio of an increase in the average tumor volume of the control group to an increase in the average tumor volume of the drug administration group was taken as the tumor growth rate (%) of the drug administration group. Table 5 showned MKN-45 tumor growth rate (%) and table 6 showned MV-4-11 tumor growth rate (%).

MV-4-11 cells = assay: Antitumor test, MV-4-11 transplanted nude mouse; format: in vivo, nude mouse (BALB/c nu/nu); conditions: MV-4-11, dose 2 mg/kg, orally, 14 consecutive days
Protocol: as §1

SMILES: Cc1ccc(C(=O)Nc2ccc(Oc3ccc4nc(NC(=O)C5CC5)cn4c3)c(F)c2)c(=O)n1-c1ccc(F)cc1.Cl [Example 32, N-[4-({2-[(cyclopropylcarbonyl)amino]imidazo[1,2-a]pyridin-6-yl}oxy)-3-fluorophenyl]-1-(4-fluorophenyl)-6-methyl-2-oxo-1,2-dihydropyridine-3-carboxamide hydrochloride]
- tumor growth rate (%) (MKN-45 cells): 14%
- tumor growth rate (%) (MV-4-11 cells): <0%
